These results are taken from patent publication US10457679B2, “Imidazo[4,5-c]quinolin-2-one compounds and their use in treating cancer” (AstraZeneca AB, priority 2015, dated 2019).

Format in all cases: cell-based
The target of one test is T1, ATM kinase (Homo sapiens, UniProt Q13315).
T1 construct: endogenous in cells; host or cells: HT29 cells (ECACC #85061109)
Briefly: Assay a) ATM cellular potency (pATM Ser1981 in X-ray irradiated HT29 cells). Conditions: HT29 cells, 1 h compound, X-ray ~600 cGy, pATM Ser1981; may be geometric mean of several tests; read-out: Assay a) ATM Cell IC50. The protocol:
The following assays were used to measure the effects of the compounds of the present invention: a) ATM cellular potency assay; b) PI3K cellular potency assay; c) mTOR cellular potency assay; d) ATR cellular potency assay. During the description of the assays, generally: • i. […] IC50 values were calculated using a smart fitting model in Genedata. […] Assay a): ATM Cellular Potency Rationale:
Most ATM molecules in the cell are rapidly phosphorylated on this site after doses of radiation as low as 0.5 Gy, and binding of a phosphospecific antibody is detectable after the introduction of only a few DNA double-strand breaks in the cell.
The rationale of the pATM assay is to identify inhibitors of ATM in cells. HT29 cells are incubated with test compounds for 1 hr prior to X-ray-irradiation. 1 h later the cells are fixed and stained for pATM (Ser1981). The fluorescence is read on the arrayscan imaging platform.
The following morning compounds of Formula (I) in 100% DMSO were added to assay plates by acoustic dispensing. After 1 h incubation at 37° C. and 5% CO2, plates (up to 6 at a time) were irradiated using the X-RAD 320 instrument (PXi) with equivalent to ˜600 cGy. Plates were returned to the incubator for a further 1 h. […] Then 20 μl of 0.1% Triton X100 in PBS was added and incubated for 20 minutes at r.t., to permeabalise cells. Then the plates were washed once with 50 μl/well PBS, using a Biotek EL405 plate washer.
After 1 h incubation at r.t., the plates were washed three times with 50 μl/well PBS, using a Biotek EL405 plate washer, and plates were sealed and kept in PBS at 4° C. until read. Plates were read using an ArrayScan VTI instrument, using an XF53 filter with 10× objective.

The target of the next test is T2, ATR kinase (Homo sapiens, UniProt Q13535).
T2 construct: measuring a decrease in phosphorylation of Chk1 (Ser 345) in HT29 cells; endogenous in cells; host or cells: HT29 cells (ECACC #85061109)
Briefly: Assay b) ATR cellular potency (pChk1 Ser345 in HT29 cells after 4NQO). The settings on record: HT29 cells, 4NQO, pChk1 Ser345; may be geometric mean of several tests; read-out: Assay b) ATR Cell IC50. The text has this:
Assay b): ATR Cellular Potency
ATR is a PI 3-kinase-related kinase which phosphorylates multiple substrates on serine or threonine residues in response to DNA damage during or replication blocks. Chk1, a downstream protein kinase of ATR, plays a key role in DNA damage checkpoint control. Activation of Chk1 involves phosphorylation of Ser317 and Ser345 (the latter regarded as the preferential target for phosphorylation/activation by ATR).
The following morning compound of Formula (I) in 100% DMSO were added to assay plates by acoustic dispensing. After 1 h incubation at 37° C. and 5% CO2. 40 nl of 3 mM 4NQO in 100% DMSO was added to all wells by acoustic dispensing, except minimum control wells which were left untreated with 4NQO to generate a null response control. Plates were returned to the incubator for a further 1 h. […] Then 20 μl of 0.1% Triton X100 in PBS was added and incubated for 10 minutes at r.t., to permeabalise cells. Then the plates were washed once with 50 μl/well PBS, using a Biotek EL405 plate washer.
After 2 h incubation at r.t., the plates were washed three times with 50 μl/well PBS, using a Biotek EL405 plate washer, and plates were then sealed with black plate seals until read. Plates were read using an ArrayScan VTI instrument, using an XF53 filter with 10× objective.

The target of the next test is PI3K-α (Homo sapiens, UniProt P42336). Briefly: Assay c) PI3K cellular potency (phospho-Akt T308 ELISA in BT474 cells). Conditions: BT474 cells, 2 h, phospho-AKT T308; may be geometric mean of several tests; read-out: Assay c) PI3Kα Cell IC50. The source says:
Assay c): PI3K Cellular Potency
This assay was used to measure PI3K-α inhibition in cells. PDK1 was identified as the upstream activation loop kinase of protein kinase B (Akt 1), which is essential for the activation of PKB. Activation of the lipid kinase phosphoinositide 3 kinase (PI3K) is critical for the activation of PKB by PDK1.
Following ligand stimulation of receptor tyrosine kinases, PI3K is activated, which converts PIP2 to PIP3, which is bound by the PH domain of PDK1 resulting in recruitment of PDK1 to the plasma membrane where it phosphorylates AKT at Thr308 in the activation loop.
The aim of this cell-based mode of action assay is to identify compounds that inhibit PDK activity or recruitment of PDK1 to membrane by inhibiting PI3K activity. Phosphorylation of phospho-Akt (T308) in BT474c cells following treatment with compounds for 2 h is a direct measure of PDK1 and indirect measure of PI3K activity.
BT474 cells (human breast ductal carcinoma, ATCC HTB-20) were seeded into black 384 well plates (Costar, #3712) at a density of 5600 cells/well in DMEM containing 10% FBS and 1% glutamine and allowed to adhere overnight.
The following morning compounds in 100% DMSO were added to assay plates by acoustic dispensing. After a 2 h incubation at 37° C. and 5% CO2, the medium was aspirated and the cells were lysed with a buffer containing 25 mM Tris, 3 mM EDTA, 3 mM EGTA, 50 mM sodium fluoride, 2 mM Sodium orthovanadate, 0.27M sucrose, 10 mM β-glycerophosphate, 5 mM sodium pyrophosphate, 0.5% Triton X-100 and complete protease inhibitor cocktail tablets (Roche #04 693 116 001, used 1 tab per 50 ml lysis buffer).
After 20 minutes, the cell lysates were transferred into ELISA plates (Greiner #781077) which had been pre-coated with an anti total-AKT antibody in PBS buffer and non-specific binding was blocked with 1% BSA in PBS containing 0.05% Tween 20. Plates were incubated over night at 4° C. The next day the plates were washed with PBS buffer containing 0.05% Tween 20 and further incubated with a mouse monoclonal anti-phospho AKT T308 for 2 h. Plates were washed again as above before addition of a horse anti-mouse-HRP conjugated secondary antibody. Following a 2 h incubation at r.t., plates were washed and QuantaBlu substrate working solution (Thermo Scientific #15169, prepared according to provider's instructions) was added to each well. The developed fluorescent product was stopped after 60 minutes by addition of Stop solution to the wells. Plates were read using a Tecan Safire plate reader using 325 nm excitation and 420 nm emission wavelengths respectively. Except where specified, reagents contained in the Path Scan Phospho AKT (Thr308) sandwich ELISA kit from Cell Signalling (#7144) were used in this ELISA assay.
In general terms: ELISA stands for enzyme-linked immunosorbent assay.

T1 sequence (Q13315 whole entry): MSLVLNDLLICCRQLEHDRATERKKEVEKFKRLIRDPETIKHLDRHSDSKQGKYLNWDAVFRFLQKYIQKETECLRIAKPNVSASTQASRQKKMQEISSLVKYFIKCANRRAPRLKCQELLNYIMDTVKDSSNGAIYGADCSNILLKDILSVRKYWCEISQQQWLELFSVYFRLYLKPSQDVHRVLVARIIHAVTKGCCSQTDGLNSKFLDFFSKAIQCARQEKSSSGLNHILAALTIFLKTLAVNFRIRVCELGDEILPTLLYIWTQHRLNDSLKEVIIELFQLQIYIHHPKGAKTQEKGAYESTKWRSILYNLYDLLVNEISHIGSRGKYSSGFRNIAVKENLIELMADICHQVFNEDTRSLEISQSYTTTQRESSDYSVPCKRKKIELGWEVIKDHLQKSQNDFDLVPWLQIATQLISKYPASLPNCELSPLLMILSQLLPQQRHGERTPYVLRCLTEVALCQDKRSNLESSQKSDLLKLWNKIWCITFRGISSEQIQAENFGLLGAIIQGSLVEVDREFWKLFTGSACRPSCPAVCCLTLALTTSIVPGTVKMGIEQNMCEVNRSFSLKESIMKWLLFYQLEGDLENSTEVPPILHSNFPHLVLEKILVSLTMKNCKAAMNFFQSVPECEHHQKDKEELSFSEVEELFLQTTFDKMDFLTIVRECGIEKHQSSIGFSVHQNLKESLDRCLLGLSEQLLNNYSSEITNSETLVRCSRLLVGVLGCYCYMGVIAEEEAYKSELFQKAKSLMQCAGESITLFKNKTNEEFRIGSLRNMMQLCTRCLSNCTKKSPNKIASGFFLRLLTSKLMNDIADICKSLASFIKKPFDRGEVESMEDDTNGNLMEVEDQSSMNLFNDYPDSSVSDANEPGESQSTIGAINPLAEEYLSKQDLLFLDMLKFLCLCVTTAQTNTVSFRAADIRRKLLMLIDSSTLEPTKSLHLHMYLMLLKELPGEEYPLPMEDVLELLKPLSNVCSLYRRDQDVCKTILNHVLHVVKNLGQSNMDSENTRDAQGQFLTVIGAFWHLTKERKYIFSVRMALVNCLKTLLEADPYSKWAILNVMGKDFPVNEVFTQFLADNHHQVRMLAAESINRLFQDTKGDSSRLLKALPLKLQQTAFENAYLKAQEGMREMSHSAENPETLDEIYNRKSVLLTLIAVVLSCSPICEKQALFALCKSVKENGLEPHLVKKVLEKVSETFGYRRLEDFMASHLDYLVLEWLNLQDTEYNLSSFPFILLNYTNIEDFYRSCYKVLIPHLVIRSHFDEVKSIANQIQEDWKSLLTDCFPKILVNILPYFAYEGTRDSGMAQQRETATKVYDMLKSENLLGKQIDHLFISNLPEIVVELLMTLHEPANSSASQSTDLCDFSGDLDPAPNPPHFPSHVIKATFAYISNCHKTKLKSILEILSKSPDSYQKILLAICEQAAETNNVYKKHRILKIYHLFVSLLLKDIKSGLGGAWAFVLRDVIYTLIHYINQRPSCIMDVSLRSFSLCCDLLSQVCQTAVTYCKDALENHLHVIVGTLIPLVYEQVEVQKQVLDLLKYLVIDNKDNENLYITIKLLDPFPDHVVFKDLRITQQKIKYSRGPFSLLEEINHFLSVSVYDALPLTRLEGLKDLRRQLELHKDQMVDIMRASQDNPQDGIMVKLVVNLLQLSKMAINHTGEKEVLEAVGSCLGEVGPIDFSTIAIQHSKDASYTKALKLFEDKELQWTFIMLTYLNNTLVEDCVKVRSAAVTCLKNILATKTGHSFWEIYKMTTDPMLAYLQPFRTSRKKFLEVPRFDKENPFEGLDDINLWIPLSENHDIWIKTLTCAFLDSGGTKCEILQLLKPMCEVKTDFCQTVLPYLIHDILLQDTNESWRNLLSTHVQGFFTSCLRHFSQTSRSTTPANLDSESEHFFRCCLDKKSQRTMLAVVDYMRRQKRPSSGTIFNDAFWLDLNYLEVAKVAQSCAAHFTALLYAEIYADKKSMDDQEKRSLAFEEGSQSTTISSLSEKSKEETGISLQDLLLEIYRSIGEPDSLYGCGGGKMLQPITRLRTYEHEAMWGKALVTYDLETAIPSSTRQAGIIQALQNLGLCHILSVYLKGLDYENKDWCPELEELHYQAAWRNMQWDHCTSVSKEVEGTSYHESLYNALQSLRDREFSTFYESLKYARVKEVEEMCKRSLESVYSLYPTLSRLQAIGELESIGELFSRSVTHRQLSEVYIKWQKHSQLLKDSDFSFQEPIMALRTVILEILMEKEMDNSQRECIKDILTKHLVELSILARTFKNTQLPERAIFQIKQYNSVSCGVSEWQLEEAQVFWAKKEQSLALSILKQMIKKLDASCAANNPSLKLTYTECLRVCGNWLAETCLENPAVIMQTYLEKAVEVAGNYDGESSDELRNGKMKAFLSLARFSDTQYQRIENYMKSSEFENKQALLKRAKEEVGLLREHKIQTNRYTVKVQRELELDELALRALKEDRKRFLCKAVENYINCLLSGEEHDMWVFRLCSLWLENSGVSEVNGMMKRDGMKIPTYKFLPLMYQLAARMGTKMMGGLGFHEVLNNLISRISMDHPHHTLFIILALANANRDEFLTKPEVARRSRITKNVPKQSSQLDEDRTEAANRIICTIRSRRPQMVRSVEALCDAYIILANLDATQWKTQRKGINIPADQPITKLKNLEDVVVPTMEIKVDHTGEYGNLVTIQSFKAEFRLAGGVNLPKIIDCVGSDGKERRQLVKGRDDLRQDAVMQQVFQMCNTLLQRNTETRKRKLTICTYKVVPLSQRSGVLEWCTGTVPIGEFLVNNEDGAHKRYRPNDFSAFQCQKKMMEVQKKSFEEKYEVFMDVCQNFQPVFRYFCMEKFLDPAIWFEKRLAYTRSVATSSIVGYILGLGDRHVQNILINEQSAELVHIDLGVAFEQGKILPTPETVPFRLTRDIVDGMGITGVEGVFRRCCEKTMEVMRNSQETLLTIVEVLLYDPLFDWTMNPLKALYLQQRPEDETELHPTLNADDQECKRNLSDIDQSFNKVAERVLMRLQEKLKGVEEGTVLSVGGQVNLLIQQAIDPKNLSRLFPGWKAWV
Sequence of PI3K-α (P42336 whole entry): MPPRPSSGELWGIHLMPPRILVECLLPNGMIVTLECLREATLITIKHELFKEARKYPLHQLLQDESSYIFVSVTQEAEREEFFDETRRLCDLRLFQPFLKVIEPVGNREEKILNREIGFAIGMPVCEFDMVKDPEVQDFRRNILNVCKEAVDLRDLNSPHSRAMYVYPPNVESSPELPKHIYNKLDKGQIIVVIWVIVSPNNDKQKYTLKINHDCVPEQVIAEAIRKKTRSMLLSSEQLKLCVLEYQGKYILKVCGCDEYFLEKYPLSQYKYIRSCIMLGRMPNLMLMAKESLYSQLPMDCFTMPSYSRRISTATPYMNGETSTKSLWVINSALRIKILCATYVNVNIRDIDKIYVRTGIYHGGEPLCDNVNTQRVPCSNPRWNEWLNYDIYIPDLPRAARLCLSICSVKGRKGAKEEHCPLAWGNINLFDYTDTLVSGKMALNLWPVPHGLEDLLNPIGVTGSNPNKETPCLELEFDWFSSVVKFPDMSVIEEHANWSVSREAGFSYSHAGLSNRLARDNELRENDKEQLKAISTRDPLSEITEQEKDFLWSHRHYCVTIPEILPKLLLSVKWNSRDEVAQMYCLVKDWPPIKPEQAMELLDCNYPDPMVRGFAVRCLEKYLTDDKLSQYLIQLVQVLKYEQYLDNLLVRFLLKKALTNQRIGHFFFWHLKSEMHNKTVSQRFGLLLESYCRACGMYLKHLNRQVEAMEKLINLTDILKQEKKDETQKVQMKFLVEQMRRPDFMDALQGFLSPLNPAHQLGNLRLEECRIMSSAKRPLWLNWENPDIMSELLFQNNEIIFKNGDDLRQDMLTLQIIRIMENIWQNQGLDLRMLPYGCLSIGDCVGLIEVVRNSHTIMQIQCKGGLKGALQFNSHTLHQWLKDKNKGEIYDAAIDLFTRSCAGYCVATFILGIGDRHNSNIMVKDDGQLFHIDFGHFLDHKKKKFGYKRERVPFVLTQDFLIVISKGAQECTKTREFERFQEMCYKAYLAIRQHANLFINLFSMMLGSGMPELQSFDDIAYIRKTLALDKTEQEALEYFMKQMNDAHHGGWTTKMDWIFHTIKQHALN

By IC50 is commonly meant the concentration that gives 50% inhibition. In the case of `CC(C)n1c(=O)n(C)c2cnc3cc(F)c(-c4ccc(OCCCN5CCCCC5)nc4)cc3c21` [Example 2, 7-Fluoro-1-isopropyl-3-methyl-8-[6-[3-(1-piperidyl)propoxy]-3-pyridyl]imidazo[4,5-c]quinolin-2-one], the results for the 50% inhibitory concentration (IC50) at ATM kinase, at ATR kinase and on PI3K-α were 0.787 nM, more than 30000 nM and more than 12000 nM, respectively.
For `CC(C)n1c(=O)n(C)c2cnc3cc(F)c(-c4ccc(OCCCN5CCC5)nc4)cc3c21` [Example 4, 8-[6-[3-(azetidin-1-yl)propoxy]-3-pyridyl]-7-fluoro-1-isopropyl-3-methyl-imidazo[4,5-c]quinolin-2-one] the same measures were 1.59 nM, more than 30000 nM and 4520 nM.
Regarding `CC(C)n1c(=O)[nH]c2cnc3cc(F)c(-c4ccc(OCCCN5CCCCC5)nc4)cc3c21` [Example 18, 7-Fluoro-1-isopropyl-8-[6-[3-(1-piperidyl)propoxy]-3-pyridyl]-3H-imidazo[4,5-c]quinolin-2-one], the half-maximal inhibitory concentration (IC50) at ATM kinase was 3.14 nM; on ATR kinase it was more than 30000 nM; on PI3K-α it was more than 30000 nM.
Take `CC(C)n1c(=O)n(C)c2cnc3cc(F)c(-c4ccc(OCCCN5CCC5)nc4F)cc3c21` [Example 16, 8-[6-[3-(azetidin-1-yl)propoxy]-2-fluoro-3-pyridyl]-7-fluoro-1-isopropyl-3-methyl-imidazo[4,5-c]quinolin-2-one]: the values for the IC50 at ATM kinase, at ATR kinase and on PI3K-α were 2.29 nM, more than 30000 nM and 9080 nM, respectively.
In the same order, the values of `CC(C)n1c(=O)n(C)c2cnc3cc(F)c(-c4ccc(OCCCN5CCCC5)nc4)cc3c21` [Example 3, 7-Fluoro-1-isopropyl-3-methyl-8-[6-(3-pyrrolidin-1-ylpropoxy)-3-pyridyl]imidazo[4,5-c]quinolin-2-one] are 0.824 nM, more than 30000 nM and 11400 nM.
As to `CC(C)n1c(=O)n(C)c2cnc3ccc(-c4ccc(OCCCN5CCCCC5)nc4F)cc3c21` [Example 9, 8-[2-Fluoro-6-[3-(1-piperidyl)propoxy]-3-pyridyl]-1-isopropyl-3-methyl-imidazo[4,5-c]quinolin-2-one], the figures for the IC50 at ATM kinase, at ATR kinase and at PI3K-α were less than 0.453 nM, more than 30000 nM and 5750 nM, respectively.
`CC(C)n1c(=O)n(C)c2cnc3ccc(-c4ccc(OCCCN5CCCC5)nc4)cc3c21` [Example 7, 1-isopropyl-3-methyl-8-[6-(3-pyrrolidin-1-ylpropoxy)-3-pyridyl]imidazo[4,5-c]quinolin-2-one]: the half-maximal inhibitory concentration (IC50) at ATM kinase was 0.256 nM; on ATR kinase, more than 30000 nM; on PI3K-α, 222 nM.
As for `CC(C)n1c(=O)n(C)c2cnc3ccc(-c4ccc(OCCCN(C)C)nc4)cc3c21` [Example 6, 8-[6-[3-(dimethylamino)propoxy]-3-pyridyl]-1-isopropyl-3-methyl-imidazo[4,5-c]quinolin-2-one], the IC50 on ATM kinase is 0.398 nM; at ATR kinase it was more than 20700 nM; at PI3K-α, 184 nM.
As to `CC(C)n1c(=O)n(C)c2cnc3cc(F)c(-c4ccc(OCCCN5CCCC5)nc4F)cc3c21` [Example 13, 7-fluoro-8-[2-fluoro-6-(3-pyrrolidin-1-ylpropoxy)-3-pyridyl]-1-isopropyl-3-methyl-imidazo[4,5-c]quinolin-2-one], the figures for the concentration for half-maximal inhibition (IC50) on ATM kinase, at ATR kinase and at PI3K-α were 1.32 nM, more than 30000 nM and 22900 nM, respectively.
In the same order, the values of `CC(C)n1c(=O)n(C)c2cnc3cc(F)c(-c4ccc(OCCC[N+]5([O-])CCCCC5)nc4)cc3c21` [Metabolite A, 7-Fluoro-1-isopropyl-3-methyl-8-[6-[3-(1-oxidopiperidin-1-ium-1-yl)propoxy]-3-pyridyl]imidazo[4,5-c]quinolin-2-one] are 35 nM, 9410 nM and 27800 nM.
In the same order, the values of `CC(C)n1c(=O)n(C)c2cnc3ccc(-c4ccc(OCCCN5CCCC5)nc4F)cc3c21` [Example 12, 8-[2-fluoro-6-(3-pyrrolidin-1-ylpropoxy)-3-pyridyl]-1-isopropyl-3-methyl-imidazo[4,5-c]quinolin-2-one] are 0.799 nM, more than 30000 nM and 2890 nM.
Take `CC(C)n1c(=O)n(C)c2cnc3ccc(-c4ccc(OCCCN5CCC5)nc4)cc3c21` [Example 8, 8-[6-[3-(Azetidin-1-yl)propoxy]-3-pyridyl]-1-isopropyl-3-methyl-imidazo[4,5-c]quinolin-2-one]: the values for the IC50 at ATM kinase and at PI3K-α were 0.698 nM and 661 nM, respectively.
Take `CC(C)n1c(=O)n(C)c2cnc3cc(F)c(-c4ccc(OCCCN5CCCCC5)nc4F)cc3c21` [Example 14, 7-fluoro-8-[2-fluoro-6-[3-(1-piperidyl)propoxy]-3-pyridyl]-1-isopropyl-3-methyl-imidazo[4,5-c]quinolin-2-one]: the IC50 on ATM kinase is 3.51 nM; at ATR kinase, more than 30000 nM; on PI3K-α it was more than 30000 nM.
As to `CC(C)n1c(=O)n(C)c2cnc3ccc(-c4ccc(OCCCN(C)C)nc4F)cc3c21` [Example 10, 8-[6-[3-(dimethylamino)propoxy]-2-fluoro-3-pyridyl]-1-isopropyl-3-methyl-imidazo[4,5-c]quinolin-2-one], the IC50 on ATM kinase is 0.686 nM; on ATR kinase, more than 30000 nM; on PI3K-α, 6180 nM.
